Data reported in PubChem BioAssay (NCI).
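Test compounds were applied to cells in 96-well plates for 48 hours at 5 doses. TGI is the concentration that stops growth completely.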

Assays:
Test in all cases: NCI anticancer screen, dose series, 48 h
DLD-1 colon = test system: DLD-1 colon
DMS 114 small cell lung = test system: DMS 114 small cell lung
DMS 273 small cell lung = test system: DMS 273 small cell lung
HOP-18 NSCLC = test system: HOP-18 NSCLC
IGROV1 ovarian = test system: IGROV1 ovarian
KM20L2 colon = test system: KM20L2 colon
M19-MEL melanoma = test system: M19-MEL melanoma
SK-MEL-5 melanoma = test system: SK-MEL-5 melanoma
SNB-78 CNS = test system: SNB-78 CNS
XF 498 CNS = test system: XF 498 CNS
786-0 renal = test system: 786-0 renal
LXFL 529 NSCLC = test system: LXFL 529 NSCLC

SMILES | TGI (DLD-1 colon) [µM] | TGI (DMS 114 small cell lung) [µM] | TGI (DMS 273 small cell lung) [µM] | TGI (HOP-18 NSCLC) [µM] | TGI (IGROV1 ovarian) [µM] | TGI (KM20L2 colon) [µM] | TGI (M19-MEL melanoma) [µM] | TGI (SK-MEL-5 melanoma) [µM] | TGI (SNB-78 CNS) [µM] | TGI (XF 498 CNS) [µM] | TGI (786-0 renal) [µM] | TGI (LXFL 529 NSCLC) [µM]
CN(C(=O)c1ccc(OCCCC(=O)O)c(Cl)c1Cl)C1CCCC1 | > 100 | > 100 | > 100 | > 100 | > 100 | > 100 | > 100 | > 100 | > 100 | 85.2 | – | –
CCOC(=O)C1(Br)S(=O)(=O)OCCOS1(=O)=O | > 100 | > 100 | > 100 | – | > 100 | > 100 | > 100 | > 100 | > 100 | > 100 | > 100 | –
O=c1ccnc2ccc3n[nH][nH]c3c12 | > 100 | > 100 | > 100 | > 100 | > 100 | > 100 | > 100 | > 100 | > 100 | > 100 | > 100 | > 100
COc1cccc(NC(=O)C(=O)C2C=CCS2(=O)=O)c1 (stereo not given) | > 100 | > 100 | – | > 100 | > 100 | > 100 | > 100 | > 100 | – | > 100 | > 100 | > 100
CCOC(=O)C(=O)NC12CC3CC(CC(C3)C1)C2 | > 100 | > 100 | > 100 | > 100 | > 100 | > 100 | – | > 100 | – | > 100 | – | > 100
CCCN(CCC)C1=Nc2ccccc2-n2cnnc2C1 | – | > 100 | > 100 | – | > 100 | > 100 | > 100 | > 100 | > 100 | > 100 | > 100 | > 100
CSCCC(C(=O)O)N(CC1(O)OCC(O)C(O)C1O)N=O (stereo not given) | > 100 | > 100 | > 100 | – | > 100 | > 100 | > 100 | > 100 | > 100 | > 100 | > 100 | > 100
CN(C(=O)c1ccco1)C(=S)N1CCN(c2ccccn2)CC1 | > 100 | – | > 100 | > 100 | > 100 | > 100 | > 100 | > 100 | > 100 | > 100 | > 100 | > 100
O=C1C=CC2(C=C1)C[C@H](NC(=O)OCc1ccccc1)C(=O)O2 | 14.1 | 47.2 | 35 | 31.5 | 38.1 | 38.7 | 33.7 | 47.9 | 67.2 | 32 | 27.6 | 24.7
